Test results published in ChEMBL document CHEMBL1201862, “PubChem BioAssay data set” (2004).
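How tested: cells in 96-well plates exposed to compound for 48 hours at five concentrations. GI50 marks 50% less growth.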 Activity calls are given as the source filed them. No stated cut-off is given here; in the data, active = GI50 up to about 1.1 µM and inactive = higher.

Legend:
Assay in all cases: NCI tumour cell line growth inhibition, 48 h
MDA-N = test system: MDA-N
ACHN = test system: ACHN
NCI-H226 = test system: NCI-H226
Hs-578T = test system: Hs-578T
SR = test system: SR
HOP-92 = test system: HOP-92
LOX IMVI = test system: LOX IMVI
OVCAR-8 = test system: OVCAR-8
SW-620 = test system: SW-620
DU-145 = test system: DU-145
NCI-H522 = test system: NCI-H522
786-0 = test system: 786-0
BT-549 = test system: BT-549
TK-10 = test system: TK-10
MDA-MB-231 = test system: MDA-MB-231
HOP-62 = test system: HOP-62
SK-MEL-5 = test system: SK-MEL-5
MDA-MB-435 = test system: MDA-MB-435
SK-MEL-28 = test system: SK-MEL-28

Measured: GI50

CSc1ccc2c(c1)C(N1CCN(C)CC1)Cc1ccccc1S2 (centres undefined)
inactive: MDA-N 3.07 µM | ACHN 3.25 µM | NCI-H226 7.8 µM | Hs-578T 4.4 µM | SR 2.3 µM | HOP-92 1.49 µM | LOX IMVI 2.01 µM | OVCAR-8 6.84 µM | SW-620 6.01 µM | DU-145 10.7 µM | NCI-H522 2.99 µM | 786-0 4.47 µM | BT-549 4.33 µM | TK-10 3.35 µM | MDA-MB-231 3.47 µM | HOP-62 8.07 µM | SK-MEL-5 1.82 µM | MDA-MB-435 2.32 µM

O=C(CCCCCNC(=O)c1ccc(Cl)cc1)NO
inactive: MDA-N 2.96 µM | ACHN 5.19 µM | NCI-H226 15.8 µM | Hs-578T 8.99 µM | SR 2.54 µM | HOP-92 2.81 µM | LOX IMVI 4.76 µM | OVCAR-8 3.41 µM | SW-620 2.82 µM | DU-145 4.17 µM | NCI-H522 2.19 µM | 786-0 7.03 µM | BT-549 21.9 µM | TK-10 3.49 µM | SK-MEL-28 5.32 µM | MDA-MB-231 3.61 µM | SK-MEL-5 3.24 µM | MDA-MB-435 3.11 µM

CCCCCNC1=CC(=O)c2ccccc2C1=O
inactive: MDA-N > 100 µM | ACHN 58.9 µM | NCI-H226 31.6 µM | Hs-578T 27.8 µM | SR 46.6 µM | HOP-92 17.4 µM | LOX IMVI 22.6 µM | OVCAR-8 23 µM | SW-620 > 100 µM | DU-145 53.3 µM | NCI-H522 19.7 µM | 786-0 18.4 µM | BT-549 19.5 µM | TK-10 30.2 µM | SK-MEL-28 > 100 µM | MDA-MB-231 19.4 µM | HOP-62 23.9 µM | SK-MEL-5 17.9 µM | MDA-MB-435 > 100 µM

COC(=O)C(Cc1c(C2Nc3ccccc3C2CC(NC(=O)CNC(C)=O)C(=O)OC)[nH]c2ccccc12)NC(=O)CNC(C)=O (centres undefined)
inactive: MDA-N > 100 µM | ACHN > 100 µM | NCI-H226 > 100 µM | Hs-578T > 72.6 µM | SR 16.3 µM | HOP-92 > 100 µM | LOX IMVI > 100 µM | OVCAR-8 > 100 µM | SW-620 > 100 µM | DU-145 > 100 µM | NCI-H522 > 100 µM | 786-0 > 100 µM | BT-549 > 100 µM | TK-10 > 100 µM | SK-MEL-28 > 100 µM | MDA-MB-231 > 100 µM | SK-MEL-5 > 100 µM | MDA-MB-435 > 100 µM

COc1ccc(/N=C2\C(=N/c3ccc(OC)cc3)N(c3ccccc3[N+](=O)[O-])C(=S)N2c2ccc(OC)cc2)cc1
inactive: MDA-N 49.8 µM | ACHN > 100 µM | NCI-H226 61.9 µM | Hs-578T > 100 µM | SR > 100 µM | HOP-92 > 100 µM | OVCAR-8 > 100 µM | SW-620 > 100 µM | DU-145 > 100 µM | NCI-H522 96.4 µM | 786-0 > 100 µM | BT-549 34.4 µM | TK-10 > 100 µM | SK-MEL-28 > 100 µM | MDA-MB-231 7.78 µM | HOP-62 71.3 µM | SK-MEL-5 35.2 µM | MDA-MB-435 > 100 µM

CC1CCCC(C(=O)CC2CC(=O)NC(=O)C2)C1=O (centres undefined)
inactive: MDA-N > 100 µM | ACHN > 100 µM | NCI-H226 > 100 µM | Hs-578T > 100 µM | SR > 100 µM | HOP-92 > 100 µM | LOX IMVI > 100 µM | OVCAR-8 > 100 µM | SW-620 > 100 µM | DU-145 > 100 µM | 786-0 > 100 µM | BT-549 > 100 µM | TK-10 > 100 µM | SK-MEL-28 > 100 µM | MDA-MB-231 > 100 µM | HOP-62 > 100 µM | SK-MEL-5 > 100 µM | MDA-MB-435 > 100 µM

O=C(/N=S(/NC(=O)c1ccccc1)C(Cl)(Cl)Cl)c1ccccc1 (centres undefined)
inactive: MDA-N 29.8 µM | ACHN 18.4 µM | NCI-H226 25.6 µM | Hs-578T 40.6 µM | SR 17.1 µM | HOP-92 32.3 µM | LOX IMVI 10.6 µM | OVCAR-8 15.5 µM | SW-620 3.57 µM | DU-145 53.5 µM | NCI-H522 30.3 µM | 786-0 28.1 µM | BT-549 12.7 µM | TK-10 > 100 µM | SK-MEL-28 25.3 µM | MDA-MB-231 33.7 µM | HOP-62 19.5 µM | SK-MEL-5 14.3 µM | MDA-MB-435 17.7 µM

Cn1c(=O)nc2n(CCO)c(-c3ccccc3)c(-c3ccccc3)nc-2c1=O
inactive: MDA-N > 100 µM | ACHN > 100 µM | NCI-H226 > 100 µM | Hs-578T 86.3 µM | SR > 100 µM | HOP-92 > 100 µM | LOX IMVI > 100 µM | OVCAR-8 > 100 µM | SW-620 > 100 µM | DU-145 > 100 µM | NCI-H522 > 100 µM | 786-0 > 100 µM | BT-549 > 100 µM | TK-10 > 100 µM | SK-MEL-28 > 100 µM | MDA-MB-231 > 100 µM | HOP-62 > 100 µM | SK-MEL-5 > 100 µM | MDA-MB-435 > 100 µM

COc1ccc(N2CCN(Cc3c(C(C)=O)[n+]([O-])c4ccccc4[n+]3[O-])CC2)cc1
inactive: MDA-N 36.4 µM | ACHN 22 µM | NCI-H226 29 µM | Hs-578T 25.2 µM | SR 37.8 µM | HOP-92 32.5 µM | LOX IMVI 56.4 µM | OVCAR-8 28.7 µM | SW-620 42.2 µM | DU-145 > 100 µM | NCI-H522 36.1 µM | 786-0 53.5 µM | BT-549 17 µM | TK-10 9.29 µM | SK-MEL-28 43.3 µM | MDA-MB-231 31.2 µM | HOP-62 16.4 µM | SK-MEL-5 37.1 µM | MDA-MB-435 32.6 µM

O=c1oc2ccc3ccccc3c2cc1-c1cn2ccsc2n1
inactive: MDA-N 21.4 µM | ACHN 16.1 µM | Hs-578T 45.1 µM | SR 9.27 µM | HOP-92 13 µM | LOX IMVI 15.8 µM | OVCAR-8 19.2 µM | SW-620 16.8 µM | DU-145 19.9 µM | NCI-H522 17.1 µM | 786-0 17.9 µM | BT-549 16.8 µM | TK-10 17.9 µM | SK-MEL-28 26 µM | MDA-MB-231 14.1 µM | HOP-62 34.5 µM | SK-MEL-5 15.4 µM | MDA-MB-435 22.4 µM

COc1cccc(/N=N/C(=NNC(=O)c2ccc(C)cc2)c2ccc(N(C)C)cc2)c1
inactive: MDA-N 39.7 µM | ACHN > 100 µM | NCI-H226 > 100 µM | Hs-578T > 100 µM | SR 62.5 µM | HOP-92 > 100 µM | LOX IMVI > 100 µM | OVCAR-8 > 100 µM | SW-620 > 100 µM | DU-145 > 100 µM | NCI-H522 > 100 µM | 786-0 > 100 µM | BT-549 > 100 µM | TK-10 > 100 µM | SK-MEL-28 > 100 µM | MDA-MB-231 > 100 µM | SK-MEL-5 98.2 µM | MDA-MB-435 21.1 µM

COc1cc2c(cc1Cl)[n+]([O-])c(C#N)c(N1CCN(c3ccc([N+](=O)[O-])cc3)CC1)[n+]2[O-]
inactive: MDA-N 24 µM | ACHN 14.7 µM | NCI-H226 > 100 µM | Hs-578T 10.3 µM | SR 2.86 µM | LOX IMVI 4.68 µM | OVCAR-8 7.28 µM | SW-620 22.5 µM | DU-145 13.8 µM | NCI-H522 5.7 µM | 786-0 12.7 µM | BT-549 15 µM | TK-10 27.3 µM | SK-MEL-28 34.8 µM | MDA-MB-231 41.8 µM | HOP-62 8.34 µM | SK-MEL-5 16.6 µM | MDA-MB-435 19.5 µM

CCOC(=O)[C@@H](NC(=O)OC(C)(C)C)[C@@H](O)C(=O)OCC
inactive: MDA-N > 100 µM | ACHN > 100 µM | NCI-H226 > 100 µM | Hs-578T > 100 µM | SR > 100 µM | HOP-92 > 100 µM | LOX IMVI > 100 µM | OVCAR-8 > 100 µM | SW-620 > 100 µM | DU-145 > 100 µM | 786-0 > 100 µM | BT-549 > 100 µM | TK-10 > 100 µM | SK-MEL-28 > 100 µM | MDA-MB-231 > 100 µM | HOP-62 > 100 µM | SK-MEL-5 > 100 µM | MDA-MB-435 > 100 µM

CC(CC[C@@H](O)C(C)(C)O)C1[C@@H](O)CC2(C)C3CC(O)C4C(C)(C)[C@@H](OC5OC(CO)C(O)C(O)C5O)CC[C@@]45C[C@@]35CC[C@]12C (some centres undefined)
inactive: MDA-N > 10 µM | ACHN > 10 µM | NCI-H226 8.79 µM | Hs-578T > 10 µM | SR > 10 µM | HOP-92 > 10 µM | OVCAR-8 > 10 µM | SW-620 > 10 µM | DU-145 > 10 µM | NCI-H522 > 10 µM | 786-0 > 10 µM | BT-549 > 10 µM | TK-10 > 10 µM | SK-MEL-28 > 10 µM | MDA-MB-231 > 10 µM | HOP-62 > 10 µM | SK-MEL-5 > 10 µM | MDA-MB-435 > 10 µM

COc1cc(O)c(C(=O)/C=C/c2ccc(O)cc2)cc1Oc1ccc(/C=C/C(=O)c2ccc(O)cc2O)cc1 [RHUSCHALCONE III]
inactive: MDA-N 8.93 µM | ACHN 8.75 µM | Hs-578T 14.4 µM | SR 5.01 µM | HOP-92 11.4 µM | LOX IMVI 8.45 µM | OVCAR-8 9.02 µM | SW-620 11.2 µM | DU-145 10.2 µM | NCI-H522 7.41 µM | 786-0 8.73 µM | BT-549 8.79 µM | TK-10 9.79 µM | SK-MEL-28 8.41 µM | MDA-MB-231 15 µM | HOP-62 10.8 µM | SK-MEL-5 7.36 µM | MDA-MB-435 8.77 µM
